From patent publication US5538949A, “Modified platelet factor-4 and cleaved platelet factor 4” (Eli Lilly and Company, priority 1995, dated 1996)
Positions of bridges follow the written chain, without caps; N, C: chain ends. Chains are numbered I, II in the order given. No end group written: not given here.

Assays:
endothelial cells = test: Endothelial cell proliferation inhibition assay; format: cell-based, bovine; details: endothelial cells with 20 ng/ml fibroblast growth factor, four days growth, cell count; for IC50, inhibition of endothelial cell proliferation: average of 4 wells; for IC50: molar figure in parentheses
Method: Primary retinal capillary endothelial cell cultures were prepared in substantial accordance with the procedure described in Buzney et al., Retinal Vascular Endothelial Cells and Pericytes: Differential Growth Characteristics in vitro, Invest. Ophthalmol. Visual Sci. 24: 470-483 (1983) and separated from contaminating cells as described in Voyta et al., Identification and Isolation of Endothelial Cells Based on their Increased Uptake of Acetylated-low density Lipoprotein, J. Cell Biol. 99: 2034-2040 (1981).
Alternatively, bovine heart endothelial cells were obtained (American Type Culture Collection; Rockville, Md. 20852) for use in the assay. Irrespective of source, the endothelial cells were seeded into 24 well tissue culture plates at a cell density of 10,000 cells/well in Dulbecco's modified Eagle Medium (GIBCO; Grand Island, N.Y.) supplemented with 5% bovine serum albumin, 1% penicillin-streptomycin, 1% L-glutamine, and 20 ng/ml fibroblast growth factor. Immediately after seeding the cells, various amounts of PF-4 (Sigma Chemical Co.; St. Louis, Mo. 63178), MPF-4, or CPF-4 (isolated as describe in the above examples) were added to individual growth wells. MPF-4 and CPF-4 were tested at final concentrations ranging from 0.001 to 1 μ/ml. For comparison, native PF-4 was tested over a range of 0.001 to 3 μ/ml, and supplemented medium alone served as the negative control. The endothelial cell cultures were allowed to grow for four days at 37 C., 5% CO2 in a humidified tissue culture incubator. The cultures were then harvested individually by trypsinization and counted using a Zm-Coulter Counter (Coulter Electronics. Inc.; Opa Locka, Fla. 33054).
The results were plotted in FIG. 1, and each point on the graph represented the average of 4 data points; ie […]. […] The inhibitory concentration for MPF-4 is close to the physiological range of PF-4 found in human plasma (Id.).

[1] = Heparin affinity chromatography; details: elute in high-affinity heparin binding fraction (0.7M to 2.0M NaCl)
From the text: The eluted proteins are then contacted with a heparin affinity resin. The ordinarily skilled artisan will readily realize that this step is best achieved in a column chromatography mode. Heparin affinity columns are commercially available from some of the same vendors mentioned above. In this step, the molecules of interest, both MPF-4 or CPF-4, bind to the heparin column and are eluted using an increasing linear salt gradient. The preferred salt is NaCl, and the portion of the gradient that is preferably collected is the 0.1-2.0M portion. The more highly preferred portion of the gradient to collect is the 0.7-2.0M portion.
The C4-pool was further fractionated by heparin affinity chromatography on a Econo-pac™ 5 ml heparin-sepharose cartridge (BioRad, Richmond, Calif. 94804). The bound proteins were eluted by a linear gradient of 0 to 2.0M NaCl in phosphate buffer saline (PBS) at a flow rate of 2.0 ml/min. The proteins that eluted from the column were pooled into three fractions: (1) non-heparin binding (flow through), (2) low-affinity heparin binding (0 to 0.7M NaCl), and (3) high-affinity heparin binding (0.7M to 2.0M NaCl) fractions.

| heparin binding [1] | Molecule | IC50, inhibition of endothelial cell proliferation (endothelial cells) | IC50 (endothelial cells) [nM] |
| --- | --- | --- | --- |
| – | PF-4: native human platelet factor-4 (Sigma Chemical Co.), tested for comparison [reference compound] | 0.8 to 1 µg/mL | ~130 |
| bind heparin | MPF-4: 54 amino acid protein, SEQ ID NO:1; homologous with the 54 C-terminal residues of PF-4, beginning with Ser-17 (SQVRPRHITSLEVIKAGPHCPTAQLIATLKNGRKICLDLQAPLYKKIIKKLLES) | 0.03 to 0.05 µg/mL | ~7 |
| bind heparin | CPF-4: 16 amino acid chain (SEQ ID NO:2) disulfide bonded to the 54 amino acid chain of MPF-4 (SEQ ID NO:1) (protein, disulfide I:10-II:20, I:12-II:36; not fully specified) chain 1: EAEEDGDLQCLCVKTT chain 2: SQVRPRHITSLEVIKAGPHCPTAQLIATLKNGRKICLDLQAPLYKKIIKKLLES | approximately 150 ng/ml | 20 |
